From PubChem BioAssay (NCI)
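48-hour exposure; five concentrations; linearly interpolated endpoints. TGI denotes the concentration required for complete inhibition of growth.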

Tests used:
Test in all cases: NCI-60 cell line screen, 48 h
HCC-2998 colon = tested on: HCC-2998 colon
M19-MEL melanoma = tested on: M19-MEL melanoma
HCT-116 colon = tested on: HCT-116 colon
786-0 renal = tested on: 786-0 renal
U251 CNS = tested on: U251 CNS
SK-OV-3 ovarian = tested on: SK-OV-3 ovarian
LOX IMVI melanoma = tested on: LOX IMVI melanoma
DMS 273 small cell lung = tested on: DMS 273 small cell lung
OVCAR-8 ovarian = tested on: OVCAR-8 ovarian
UACC-62 melanoma = tested on: UACC-62 melanoma
OVCAR-5 ovarian = tested on: OVCAR-5 ovarian
M14 melanoma = tested on: M14 melanoma
IGROV1 ovarian = tested on: IGROV1 ovarian
SR leukemia = tested on: SR leukemia
OVCAR-3 ovarian = tested on: OVCAR-3 ovarian
HOP-18 NSCLC = tested on: HOP-18 NSCLC
SK-MEL-5 melanoma = tested on: SK-MEL-5 melanoma
SF-295 CNS = tested on: SF-295 CNS
OVCAR-4 ovarian = tested on: OVCAR-4 ovarian
XF 498 CNS = tested on: XF 498 CNS
KM20L2 colon = tested on: KM20L2 colon
A549 NSCLC = tested on: A549 NSCLC
SW-620 colon = tested on: SW-620 colon
SF-539 CNS = tested on: SF-539 CNS
SNB-75 CNS = tested on: SNB-75 CNS
MOLT-4 leukemia = tested on: MOLT-4 leukemia
RPMI-8226 leukemia = tested on: RPMI-8226 leukemia
UO-31 renal = tested on: UO-31 renal
SNB-78 CNS = tested on: SNB-78 CNS
CCRF-CEM leukemia = tested on: CCRF-CEM leukemia
ACHN renal = tested on: ACHN renal
UACC-257 melanoma = tested on: UACC-257 melanoma
SNB-19 CNS = tested on: SNB-19 CNS
HT29 colon = tested on: HT29 colon
KM12 colon = tested on: KM12 colon
CAKI-1 renal = tested on: CAKI-1 renal
SN12C renal = tested on: SN12C renal
EKVX NSCLC = tested on: EKVX NSCLC
SF-268 CNS = tested on: SF-268 CNS
LXFL 529 NSCLC = tested on: LXFL 529 NSCLC
K-562 leukemia = tested on: K-562 leukemia
TK-10 renal = tested on: TK-10 renal
SK-MEL-28 melanoma = tested on: SK-MEL-28 melanoma
HCT-15 colon = tested on: HCT-15 colon
DMS 114 small cell lung = tested on: DMS 114 small cell lung
NCI-H522 lung = tested on: NCI-H522 lung
NCI-H23 lung = tested on: NCI-H23 lung
HL-60(TB) leukemia = tested on: HL-60(TB) leukemia
HOP-92 NSCLC = tested on: HOP-92 NSCLC
NCI-H460 lung = tested on: NCI-H460 lung
A498 renal = tested on: A498 renal
DLD-1 colon = tested on: DLD-1 colon
HOP-62 NSCLC = tested on: HOP-62 NSCLC
SK-MEL-2 melanoma = tested on: SK-MEL-2 melanoma
COLO 205 colon = tested on: COLO 205 colon
MALME-3M melanoma = tested on: MALME-3M melanoma
RXF 393 renal = tested on: RXF 393 renal
NCI-H226 lung = tested on: NCI-H226 lung

Measured: TGI

CCN(CC)CCN1CCc2c([nH]c3ccccc23)C1c1cccnc1 (stereo not given)
> 100 µM: HCC-2998 colon | M19-MEL melanoma | HCT-116 colon | 786-0 renal | U251 CNS | SK-OV-3 ovarian | LOX IMVI melanoma | DMS 273 small cell lung | OVCAR-8 ovarian | UACC-62 melanoma | OVCAR-5 ovarian | M14 melanoma | IGROV1 ovarian | SR leukemia | OVCAR-3 ovarian | HOP-18 NSCLC | SK-MEL-5 melanoma | SF-295 CNS | OVCAR-4 ovarian | XF 498 CNS | KM20L2 colon | A549 NSCLC | SW-620 colon | SF-539 CNS | SNB-75 CNS | MOLT-4 leukemia | RPMI-8226 leukemia | UO-31 renal | SNB-78 CNS | CCRF-CEM leukemia | ACHN renal | UACC-257 melanoma | SNB-19 CNS | HT29 colon | KM12 colon | CAKI-1 renal | SN12C renal | EKVX NSCLC | SF-268 CNS | LXFL 529 NSCLC | K-562 leukemia | TK-10 renal | SK-MEL-28 melanoma | HCT-15 colon | DMS 114 small cell lung | NCI-H522 lung | NCI-H23 lung | HL-60(TB) leukemia | HOP-92 NSCLC | NCI-H460 lung | A498 renal | DLD-1 colon | HOP-62 NSCLC

COC(=O)CC(=O)OC
> 100 µM: HCC-2998 colon | M19-MEL melanoma | HCT-116 colon | 786-0 renal | U251 CNS | SK-OV-3 ovarian | LOX IMVI melanoma | DMS 273 small cell lung | OVCAR-8 ovarian | UACC-62 melanoma | OVCAR-5 ovarian | M14 melanoma | IGROV1 ovarian | OVCAR-3 ovarian | HOP-18 NSCLC | SK-MEL-5 melanoma | SF-295 CNS | OVCAR-4 ovarian | XF 498 CNS | KM20L2 colon | A549 NSCLC | SW-620 colon | SF-539 CNS | SNB-75 CNS | SK-MEL-2 melanoma | MOLT-4 leukemia | RPMI-8226 leukemia | UO-31 renal | COLO 205 colon | SNB-78 CNS | CCRF-CEM leukemia | ACHN renal | UACC-257 melanoma | SNB-19 CNS | HT29 colon | MALME-3M melanoma | KM12 colon | CAKI-1 renal | SN12C renal | EKVX NSCLC | SF-268 CNS | LXFL 529 NSCLC | K-562 leukemia | TK-10 renal | RXF 393 renal | HCT-15 colon | DMS 114 small cell lung | NCI-H23 lung | HL-60(TB) leukemia | HOP-92 NSCLC | NCI-H460 lung | A498 renal | DLD-1 colon | HOP-62 NSCLC

CCCCCCCCCCCCCC(=S)N/C=C/OC
56.1 µM: OVCAR-3 ovarian
61.7 µM: SK-MEL-5 melanoma
50.1 µM: HT29 colon
71.4 µM: COLO 205 colon
45.9 µM: HCC-2998 colon
36.8 µM: HL-60(TB) leukemia
53.1 µM: U251 CNS
85.4 µM: SF-295 CNS
46.8 µM: LOX IMVI melanoma
81.7 µM: EKVX NSCLC
86.2 µM: A498 renal
53.3 µM: HCT-15 colon
> 100 µM: HCT-116 colon | 786-0 renal | SK-OV-3 ovarian | OVCAR-8 ovarian | OVCAR-5 ovarian | M14 melanoma | IGROV1 ovarian | HOP-18 NSCLC | OVCAR-4 ovarian | KM20L2 colon | A549 NSCLC | SW-620 colon | SF-539 CNS | SNB-75 CNS | SNB-78 CNS | NCI-H226 lung | SNB-19 CNS | MALME-3M melanoma | SN12C renal | SF-268 CNS | LXFL 529 NSCLC | TK-10 renal | SK-MEL-28 melanoma | NCI-H460 lung | DLD-1 colon | HOP-62 NSCLC
46.3 µM: NCI-H522 lung
73 µM: SK-MEL-2 melanoma
51.9 µM: XF 498 CNS
51.5 µM: RPMI-8226 leukemia
74.5 µM: HOP-92 NSCLC
56.2 µM: CCRF-CEM leukemia
74 µM: NCI-H23 lung
95.6 µM: UO-31 renal
54.8 µM: RXF 393 renal
99.6 µM: M19-MEL melanoma
48.3 µM: DMS 114 small cell lung
57 µM: UACC-257 melanoma
81.9 µM: KM12 colon
96.4 µM: ACHN renal
71.3 µM: UACC-62 melanoma
